Assay results reported in paper PMC7377474, “Preclinical characterization of CPL302-253, a selective inhibitor of PI3Kδ, as the candidate for the inhalatory treatment and prevention of Asthma” (PLoS ONE, 2020).

Tests used:
[1] = Pharmacokinetics after intratracheal instillation; type: in vivo; settings: mouse
Experimental: Female Balb/c mouse (20–25 g bodyweight) were purchased from Nofer Institute (Lodz, Poland). Animals were given 0.3 mg/kg or 1 mg/kg single dose of CPL302-253 by intratracheal instillation. The compound was suspended in 0.2% DMSO in saline. 5 animals per time-point were sacrificed 10 min, 30 min, 1 h, 2 h, 4 h, 7 h and 12 h after compound administration. The blood was collected by heart puncture to K2EDTA containing tubes and plasma samples were prepared by centrifugation. The Bronchoalveolar Lavage Fluid (BALF) was collected by flushing the lungs 2 times with 1 ml of saline. The lungs were homogenized in 10% DMSO solution in water. 3ml of the solution were used for 1 g of lung tissue. The samples were purified using acetonitrile and concentration of CPL302-253 was measured by LC-MS/MS with internal standard. The concentration of the compound is given per ml of plasma and BALF or g of lung tissue.
LC-MS analysis of PK samples was performed using 1290 Infinity II UPLC (Agilent) with 6460 Triple Quad MS (Agilent) in the positive mode and MRM mode. […] Samples were eluted using a timed, linear gradient from 10% B at 0.3 min to 95% B at 1.5 min, then back to 10% at 2.5 min. The column was equilibrated for up to 5 min. The flow rate was 0.4 mL/min. The injection volume was 5 μL. Calibration curve was prepared in the range from 1 ng/mL to 2000 ng/mL by spiking 45 μL of plasma with 5 μL of concentrated standard solution. All plasma based standard solutions and studied samples (50 μL) were subsequently extracted with 150 μL of acetonitrile containing donepezil as internal standard and centrifuged to provide supernatant ready for analysis.

OPRD1 = target: T1, OPRD1 (Homo sapiens, UniProt P41143); test: SafetyScan44; type: cell-based; settings: 10 μM
T1 construct: purchased DiscoverX (Eurofins) SafetyScan44
Experimental: (§1) SafetyScan44 assay was performed by DiscoverX according to service provider’s protocol.

AR = target: T2, AR (Homo sapiens, UniProt P10275); test: SafetyScan44; type: cell-based; settings: 10 μM
T2 construct: purchased DiscoverX (Eurofins) SafetyScan44
Experimental: as §1

NET = target: T3, NET (Homo sapiens, UniProt P23975); test: SafetyScan44; type: cell-based; settings: 10 μM; Blocker mode
T3 construct: purchased DiscoverX (Eurofins) SafetyScan44
Experimental: as §1

PDE4D2 = target: T4, PDE4D2 (Homo sapiens, UniProt Q08499); test: SafetyScan44; type: cell-based; settings: 10 μM; Inhibitor mode
T4 construct: purchased DiscoverX (Eurofins) SafetyScan44
Experimental: as §1

DRD1 = target: T5, DRD1 (Homo sapiens, UniProt P21728); test: SafetyScan44; type: cell-based; settings: 10 μM
T5 construct: purchased DiscoverX (Eurofins) SafetyScan44
Experimental: as §1

AChE = target: T6, AChE (Homo sapiens, UniProt P22303); test: SafetyScan44; type: cell-based; settings: 10 μM; Inhibitor mode
T6 construct: purchased DiscoverX (Eurofins) SafetyScan44
Experimental: as §1

GR = target: T7, GR (Homo sapiens, UniProt P04150); test: SafetyScan44; type: cell-based; settings: 10 μM
T7 construct: purchased DiscoverX (Eurofins) SafetyScan44
Experimental: as §1

CHRM3 = target: T8, CHRM3 (Homo sapiens, UniProt P20309); test: SafetyScan44; type: cell-based; settings: 10 μM
T8 construct: purchased DiscoverX (Eurofins) SafetyScan44
Experimental: as §1

NAV1.5 = target: T9, NAV1.5 (Homo sapiens, UniProt Q14524); test: SafetyScan44; type: cell-based; settings: 10 μM; Blocker mode
T9 construct: purchased DiscoverX (Eurofins) SafetyScan44
Experimental: as §1

VEGFR2 = target: T10, VEGFR2 (Homo sapiens, UniProt P35968); test: SafetyScan44; type: cell-based; settings: 10 μM; Inhibitor mode
T10 construct: purchased DiscoverX (Eurofins) SafetyScan44
Experimental: as §1

OPRK1 = target: T11, OPRK1 (Homo sapiens, UniProt P41145); test: SafetyScan44; type: cell-based; settings: 10 μM
T11 construct: purchased DiscoverX (Eurofins) SafetyScan44
Experimental: as §1

CNR1 = target: T12, CNR1 (Homo sapiens, UniProt P21554); test: SafetyScan44; type: cell-based; settings: 10 μM
T12 construct: purchased DiscoverX (Eurofins) SafetyScan44
Experimental: as §1

ADRB1 = target: T13, ADRB1 (Homo sapiens, UniProt P08588); test: SafetyScan44; type: cell-based; settings: 10 μM
T13 construct: purchased DiscoverX (Eurofins) SafetyScan44
Experimental: as §1

HRH2 = target: T14, HRH2 (Homo sapiens, UniProt P25021); test: SafetyScan44; type: cell-based; settings: 10 μM
T14 construct: purchased DiscoverX (Eurofins) SafetyScan44
Experimental: as §1

SERT = target: T15, SERT (Homo sapiens, UniProt P31645); test: SafetyScan44; type: cell-based; settings: 10 μM; Blocker mode
T15 construct: purchased DiscoverX (Eurofins) SafetyScan44
Experimental: as §1

DRD2S = target: T16, DRD2S (Homo sapiens, UniProt P14416); test: SafetyScan44; type: cell-based; settings: 10 μM
T16 construct: purchased DiscoverX (Eurofins) SafetyScan44
Experimental: as §1

ADORA2A = target: T17, ADORA2A (Homo sapiens, UniProt P29274); test: SafetyScan44; type: cell-based; settings: 10 μM
T17 construct: purchased DiscoverX (Eurofins) SafetyScan44
Experimental: as §1

ADRA1A = target: T18, ADRA1A (Homo sapiens, UniProt P35348); test: SafetyScan44; type: cell-based; settings: 10 μM
T18 construct: purchased DiscoverX (Eurofins) SafetyScan44
Experimental: as §1

AVPR1A = target: T19, AVPR1A (Homo sapiens, UniProt P37288); test: SafetyScan44; type: cell-based; settings: 10 μM
T19 construct: purchased DiscoverX (Eurofins) SafetyScan44
Experimental: as §1

ADRB2 = target: T20, ADRB2 (Homo sapiens, UniProt P07550); test: SafetyScan44; type: cell-based; settings: 10 μM
T20 construct: purchased DiscoverX (Eurofins) SafetyScan44
Experimental: as §1

HTR2A = target: T21, HTR2A (Homo sapiens, UniProt P28223); test: SafetyScan44; type: cell-based; settings: 10 μM
T21 construct: purchased DiscoverX (Eurofins) SafetyScan44
Experimental: as §1

ADRA2A = target: T22, ADRA2A (Homo sapiens, UniProt P08913); test: SafetyScan44; type: cell-based; settings: 10 μM
T22 construct: purchased DiscoverX (Eurofins) SafetyScan44
Experimental: as §1

OPRM1 = target: T23, OPRM1 (Homo sapiens, UniProt P35372); test: SafetyScan44; type: cell-based; settings: 10 μM
T23 construct: purchased DiscoverX (Eurofins) SafetyScan44
Experimental: as §1

HTR1A = target: T24, HTR1A (Homo sapiens, UniProt P08908); test: SafetyScan44; type: cell-based; settings: 10 μM
T24 construct: purchased DiscoverX (Eurofins) SafetyScan44
Experimental: as §1

[2] = tested on: co-culture of dermal fibroblasts and keratinocytes; test: BioMAP profiling, KF3CT system; type: cell-based, human
Experimental: BioMap Profiling study was performed by DiscovereX according to service provider’s protocol. In brief cultures or co-cultures of human primary cells were treated with sets of stimulators specific for cell subsets. […] The assays included positive and negative controls as well as vehicle control. The expression of biomarkers specific for each system was measured by ELISA and other techniques.

T14 sequence (P25021 whole entry): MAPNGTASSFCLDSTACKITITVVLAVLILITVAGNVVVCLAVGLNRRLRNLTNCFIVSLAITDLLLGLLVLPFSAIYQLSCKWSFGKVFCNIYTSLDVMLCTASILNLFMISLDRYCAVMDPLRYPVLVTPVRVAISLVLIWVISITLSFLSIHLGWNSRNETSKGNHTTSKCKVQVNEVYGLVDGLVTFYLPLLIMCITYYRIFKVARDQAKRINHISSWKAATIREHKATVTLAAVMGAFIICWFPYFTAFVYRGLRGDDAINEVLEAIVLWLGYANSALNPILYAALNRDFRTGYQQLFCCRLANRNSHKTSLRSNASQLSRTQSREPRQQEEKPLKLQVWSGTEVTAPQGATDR
T16 sequence (P14416 1-414 isoform P14416-2): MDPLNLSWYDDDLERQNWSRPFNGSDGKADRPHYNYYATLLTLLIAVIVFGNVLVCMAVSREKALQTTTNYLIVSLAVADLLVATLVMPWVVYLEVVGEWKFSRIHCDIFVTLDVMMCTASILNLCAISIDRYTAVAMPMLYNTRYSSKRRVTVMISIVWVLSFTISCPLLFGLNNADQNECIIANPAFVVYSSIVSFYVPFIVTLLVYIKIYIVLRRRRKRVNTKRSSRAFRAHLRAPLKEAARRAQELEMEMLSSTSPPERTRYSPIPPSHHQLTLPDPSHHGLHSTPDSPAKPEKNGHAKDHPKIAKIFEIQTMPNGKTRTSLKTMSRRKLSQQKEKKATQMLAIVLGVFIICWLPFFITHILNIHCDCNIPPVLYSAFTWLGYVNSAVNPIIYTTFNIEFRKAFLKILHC
T18 sequence (P35348 whole entry): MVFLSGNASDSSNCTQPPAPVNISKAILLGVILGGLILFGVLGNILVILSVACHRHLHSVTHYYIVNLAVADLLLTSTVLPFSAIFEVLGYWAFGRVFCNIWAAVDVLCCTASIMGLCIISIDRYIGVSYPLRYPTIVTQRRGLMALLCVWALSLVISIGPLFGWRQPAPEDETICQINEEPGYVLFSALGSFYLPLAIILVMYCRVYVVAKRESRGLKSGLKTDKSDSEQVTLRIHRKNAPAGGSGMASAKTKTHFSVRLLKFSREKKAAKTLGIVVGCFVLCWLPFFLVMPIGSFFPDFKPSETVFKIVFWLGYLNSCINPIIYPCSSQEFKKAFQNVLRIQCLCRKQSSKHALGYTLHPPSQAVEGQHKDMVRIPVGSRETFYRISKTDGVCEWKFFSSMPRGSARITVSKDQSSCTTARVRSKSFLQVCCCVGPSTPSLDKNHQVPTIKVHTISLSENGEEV
T12 sequence (P21554 whole entry): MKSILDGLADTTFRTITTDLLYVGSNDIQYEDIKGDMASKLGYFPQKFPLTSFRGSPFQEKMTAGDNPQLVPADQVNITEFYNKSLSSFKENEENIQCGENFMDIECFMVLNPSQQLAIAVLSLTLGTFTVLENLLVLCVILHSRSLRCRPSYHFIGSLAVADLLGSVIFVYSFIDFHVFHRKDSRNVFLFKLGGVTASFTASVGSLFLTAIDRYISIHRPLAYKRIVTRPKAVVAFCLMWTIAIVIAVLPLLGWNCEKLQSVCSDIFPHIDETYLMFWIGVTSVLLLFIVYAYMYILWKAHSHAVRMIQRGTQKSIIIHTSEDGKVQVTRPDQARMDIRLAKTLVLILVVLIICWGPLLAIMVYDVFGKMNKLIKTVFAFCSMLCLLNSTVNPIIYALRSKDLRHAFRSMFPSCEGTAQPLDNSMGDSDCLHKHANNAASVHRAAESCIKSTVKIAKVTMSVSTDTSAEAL
T11 sequence (P41145 whole entry): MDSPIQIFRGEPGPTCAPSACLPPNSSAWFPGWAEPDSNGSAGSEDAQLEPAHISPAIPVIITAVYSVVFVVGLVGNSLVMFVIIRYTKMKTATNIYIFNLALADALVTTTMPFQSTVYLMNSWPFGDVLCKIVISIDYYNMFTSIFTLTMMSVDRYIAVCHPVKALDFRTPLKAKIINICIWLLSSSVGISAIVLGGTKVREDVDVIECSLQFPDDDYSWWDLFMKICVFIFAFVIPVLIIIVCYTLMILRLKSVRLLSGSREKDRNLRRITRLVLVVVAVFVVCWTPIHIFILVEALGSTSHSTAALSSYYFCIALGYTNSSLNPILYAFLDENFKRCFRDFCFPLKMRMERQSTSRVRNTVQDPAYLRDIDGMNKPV
T2 sequence (P10275 whole entry): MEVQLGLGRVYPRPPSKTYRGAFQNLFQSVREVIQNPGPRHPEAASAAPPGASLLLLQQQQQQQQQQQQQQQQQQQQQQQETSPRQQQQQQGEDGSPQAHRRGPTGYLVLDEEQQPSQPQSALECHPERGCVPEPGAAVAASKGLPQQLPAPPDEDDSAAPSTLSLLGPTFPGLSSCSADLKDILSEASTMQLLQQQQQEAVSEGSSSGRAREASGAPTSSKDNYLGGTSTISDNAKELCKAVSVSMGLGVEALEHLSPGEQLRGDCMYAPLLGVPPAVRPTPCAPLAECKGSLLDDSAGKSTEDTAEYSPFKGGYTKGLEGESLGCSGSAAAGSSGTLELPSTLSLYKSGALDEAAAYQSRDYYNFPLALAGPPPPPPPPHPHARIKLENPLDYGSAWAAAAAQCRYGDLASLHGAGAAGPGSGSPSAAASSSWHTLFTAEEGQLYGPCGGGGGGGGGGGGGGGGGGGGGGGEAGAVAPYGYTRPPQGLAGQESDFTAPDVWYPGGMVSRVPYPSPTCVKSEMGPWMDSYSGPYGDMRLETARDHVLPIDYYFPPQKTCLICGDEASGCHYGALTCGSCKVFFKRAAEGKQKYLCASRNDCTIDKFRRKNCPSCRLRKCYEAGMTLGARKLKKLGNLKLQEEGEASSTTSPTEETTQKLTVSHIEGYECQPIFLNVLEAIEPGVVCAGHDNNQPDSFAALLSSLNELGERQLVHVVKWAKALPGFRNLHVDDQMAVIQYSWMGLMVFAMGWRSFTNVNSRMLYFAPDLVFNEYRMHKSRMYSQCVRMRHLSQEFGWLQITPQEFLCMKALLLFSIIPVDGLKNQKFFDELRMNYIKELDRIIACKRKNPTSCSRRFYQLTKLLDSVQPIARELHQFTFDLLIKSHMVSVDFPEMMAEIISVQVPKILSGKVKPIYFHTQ
T22 sequence (P08913 whole entry): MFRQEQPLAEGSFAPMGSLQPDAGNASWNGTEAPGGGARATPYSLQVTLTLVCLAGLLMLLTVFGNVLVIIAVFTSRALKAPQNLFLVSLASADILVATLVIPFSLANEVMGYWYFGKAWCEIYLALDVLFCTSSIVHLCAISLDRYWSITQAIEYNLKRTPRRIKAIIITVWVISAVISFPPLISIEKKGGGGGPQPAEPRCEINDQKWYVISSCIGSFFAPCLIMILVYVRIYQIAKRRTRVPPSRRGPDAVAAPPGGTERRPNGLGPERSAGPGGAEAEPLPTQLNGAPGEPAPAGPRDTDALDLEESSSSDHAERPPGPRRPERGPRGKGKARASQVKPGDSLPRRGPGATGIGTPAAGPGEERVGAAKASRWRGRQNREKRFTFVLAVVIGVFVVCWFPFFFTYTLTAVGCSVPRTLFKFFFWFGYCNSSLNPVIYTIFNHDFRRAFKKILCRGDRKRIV
T13 sequence (P08588 whole entry): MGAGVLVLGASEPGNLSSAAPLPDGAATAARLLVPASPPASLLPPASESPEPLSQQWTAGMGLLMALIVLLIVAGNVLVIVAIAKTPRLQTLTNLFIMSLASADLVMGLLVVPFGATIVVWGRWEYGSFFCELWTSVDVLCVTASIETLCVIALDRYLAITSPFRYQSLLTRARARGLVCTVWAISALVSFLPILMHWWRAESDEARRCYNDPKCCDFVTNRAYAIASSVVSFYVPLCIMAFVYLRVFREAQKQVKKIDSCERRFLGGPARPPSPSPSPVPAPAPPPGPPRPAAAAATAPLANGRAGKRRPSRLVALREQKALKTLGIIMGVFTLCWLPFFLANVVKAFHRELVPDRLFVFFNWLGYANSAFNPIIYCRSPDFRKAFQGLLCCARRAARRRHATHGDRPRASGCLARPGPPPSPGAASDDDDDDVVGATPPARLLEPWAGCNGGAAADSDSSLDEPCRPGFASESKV
T20 sequence (P07550 whole entry): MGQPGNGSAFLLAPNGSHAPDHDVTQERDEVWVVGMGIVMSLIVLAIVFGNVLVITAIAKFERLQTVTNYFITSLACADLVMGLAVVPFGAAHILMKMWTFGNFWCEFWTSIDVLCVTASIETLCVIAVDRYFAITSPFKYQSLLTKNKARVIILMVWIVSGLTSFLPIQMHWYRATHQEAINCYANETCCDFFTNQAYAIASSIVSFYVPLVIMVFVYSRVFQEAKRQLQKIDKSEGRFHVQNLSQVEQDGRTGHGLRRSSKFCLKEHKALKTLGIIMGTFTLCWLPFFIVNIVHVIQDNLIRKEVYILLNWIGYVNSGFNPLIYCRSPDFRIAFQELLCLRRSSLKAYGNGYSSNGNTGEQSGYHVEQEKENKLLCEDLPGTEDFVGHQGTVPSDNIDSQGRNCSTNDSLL
T1 sequence (P41143 whole entry): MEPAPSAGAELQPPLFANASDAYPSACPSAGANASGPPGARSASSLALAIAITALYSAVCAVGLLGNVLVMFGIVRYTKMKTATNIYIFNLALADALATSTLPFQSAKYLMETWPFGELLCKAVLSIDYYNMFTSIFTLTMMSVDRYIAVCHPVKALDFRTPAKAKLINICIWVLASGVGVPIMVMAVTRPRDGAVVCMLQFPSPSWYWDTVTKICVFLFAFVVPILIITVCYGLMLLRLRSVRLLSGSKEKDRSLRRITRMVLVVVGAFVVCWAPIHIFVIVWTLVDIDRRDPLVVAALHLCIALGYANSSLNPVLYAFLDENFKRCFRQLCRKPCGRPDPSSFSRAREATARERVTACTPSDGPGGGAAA

## CC(C)(C)N1CCN(Cc2cc3nc(-c4cncc5[nH]ccc45)cc(N4CCOCC4)n3n2)CC1 [CPL302-253]
[1]; 0.3 mg/kg intratracheal, time 2 h
  concentration in Plasma, single animals: 16.45
[1]; in vivo
  concentration in the blood compared with the lungs: two orders of magnitude lower
  distribution after intratracheal administration: exclusively accumulated in the lung tissue and BAL with minor penetration to the circulation
OPRD1; Agonist mode
  % Response OPRD1 Agonist: -6.4%
OPRD1; Antagonist mode
  % Response OPRD1 Antagonist: 0.4%
AR; Agonist mode
  % Response AR Agonist: -0.7%
AR; Antagonist mode
  % Response AR Antagonist: 8.5%
NET
  % Response NET Blocker: 8.5%
PDE4D2
  % Response PDE4D2 Inhibitor: 2.0%
DRD1; Agonist mode
  % Response DRD1 Agonist: 1.1%
DRD1; Antagonist mode
  % Response DRD1 Antagonist: 9.3%
AChE
  % Response AChE Inhibitor: 27.8%
GR; Agonist mode
  % Response GR Agonist: 0.0%
GR; Antagonist mode
  % Response GR Antagonist: -5.6%
CHRM3; Agonist mode
  % Response CHRM3 Agonist: 1.2%
CHRM3; Antagonist mode
  % Response CHRM3 Antagonist: 12.6%
NAV1.5
  % Response NAV1.5 Blocker: 9.7%
VEGFR2
  % Response VEGFR2 Inhibitor: 30.7%
OPRK1; Agonist mode
  % Response OPRK1 Agonist: -11.0%
OPRK1; Antagonist mode
  % Response OPRK1 Antagonist: 0.3%
CNR1; Agonist mode
  % Response CNR1 Agonist: -9.2%
CNR1; Antagonist mode
  % Response CNR1 Antagonist: -1.3%
ADRB1; Agonist mode
  % Response ADRB1 Agonist: 0.5%
ADRB1; Antagonist mode
  % Response ADRB1 Antagonist: 26.6%
HRH2; Agonist mode
  % Response HRH2 Agonist: 0.6%
HRH2; Antagonist mode
  % Response HRH2 Antagonist: 4.2%
SERT
  % Response SERT Blocker: 21.5%
DRD2S; Agonist mode
  % Response DRD2S Agonist: -4.5%
DRD2S; Antagonist mode
  % Response DRD2S Antagonist: -1.1%
ADORA2A; Agonist mode
  % Response ADORA2A Agonist: -0.8%
ADORA2A; Antagonist mode
  % Response ADORA2A Antagonist: 11.7%
ADRA1A; Agonist mode
  % Response ADRA1A Agonist: -22.5%
ADRA1A; Antagonist mode
  % Response ADRA1A Antagonist: -2.8%
AVPR1A; Agonist mode
  % Response AVPR1A Agonist: -3.2%
AVPR1A; Antagonist mode
  % Response AVPR1A Antagonist: -5.2%
ADRB2; Agonist mode
  % Response ADRB2 Agonist: 0.5%
ADRB2; Antagonist mode
  % Response ADRB2 Antagonist: 17.7%
HTR2A; Agonist mode
  % Response HTR2A Agonist: -1.5%
HTR2A; Antagonist mode
  % Response HTR2A Antagonist: 11.5%
ADRA2A; Agonist mode
  % Response ADRA2A Agonist: 0.4%
ADRA2A; Antagonist mode
  % Response ADRA2A Antagonist: -0.7%
OPRM1; Agonist mode
  % Response OPRM1 Agonist: -9.0%
OPRM1; Antagonist mode
  % Response OPRM1 Antagonist: 0.2%
HTR1A; Agonist mode
  % Response HTR1A Agonist: 5.6%
HTR1A; Antagonist mode
  % Response HTR1A Antagonist: -4.8%
[2]
  concentration inducing decrease of Plasminogen Activator Inhibitor-1 expression: ≥ 150 nM
  decrease of Plasminogen Activator Inhibitor-1 expression, effect size: lower than 0.2 log10
